How the values were obtained:
Experiment in all cases: Kinase panel profiling at 1 µmol/L (MSA or IMAP), percentage inhibition
Format in all cases: biochemical
[1] = biological target: T1, panel of 255 wild-type kinases (Homo sapiens, UniProt Q16832); settings: kinase DDR2; 1 µmol/L single concentration; read-out: %-inhibition at 1 µmol/L, DDR2
T1 sequence (Q16832 22-855): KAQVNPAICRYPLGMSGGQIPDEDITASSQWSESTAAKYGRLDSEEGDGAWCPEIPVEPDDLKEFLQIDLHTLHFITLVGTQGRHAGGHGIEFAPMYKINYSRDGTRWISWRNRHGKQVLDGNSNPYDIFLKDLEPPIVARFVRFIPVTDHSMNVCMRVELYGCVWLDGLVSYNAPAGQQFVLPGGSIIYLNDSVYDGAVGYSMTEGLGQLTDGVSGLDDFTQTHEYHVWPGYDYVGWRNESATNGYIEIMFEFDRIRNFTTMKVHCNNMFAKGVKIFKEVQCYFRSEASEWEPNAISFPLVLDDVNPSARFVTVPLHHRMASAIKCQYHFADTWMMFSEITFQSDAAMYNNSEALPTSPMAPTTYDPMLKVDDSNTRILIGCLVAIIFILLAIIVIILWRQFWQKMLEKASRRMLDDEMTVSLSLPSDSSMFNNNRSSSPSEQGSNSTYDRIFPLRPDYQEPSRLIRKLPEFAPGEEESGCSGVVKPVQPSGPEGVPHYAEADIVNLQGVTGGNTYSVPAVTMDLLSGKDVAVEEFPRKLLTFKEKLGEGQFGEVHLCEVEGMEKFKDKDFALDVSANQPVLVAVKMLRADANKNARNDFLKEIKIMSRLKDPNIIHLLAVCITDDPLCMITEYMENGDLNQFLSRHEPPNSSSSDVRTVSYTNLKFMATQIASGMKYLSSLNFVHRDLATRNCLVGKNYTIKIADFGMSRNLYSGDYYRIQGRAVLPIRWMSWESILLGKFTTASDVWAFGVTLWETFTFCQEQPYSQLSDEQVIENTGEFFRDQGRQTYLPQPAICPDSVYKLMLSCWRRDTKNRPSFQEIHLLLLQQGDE

[2] = biological target: panel of 255 wild-type kinases (Homo sapiens, UniProt P24723); settings: kinase PKCη; 1 µmol/L single concentration; read-out: %-inhibition at 1 µmol/L, PKCη
[3] = biological target: T2, panel of 255 wild-type kinases (Homo sapiens, UniProt O15111); settings: kinase IKKα; 1 µmol/L single concentration; read-out: %-inhibition at 1 µmol/L, IKKα
T2 sequence (O15111 1-745): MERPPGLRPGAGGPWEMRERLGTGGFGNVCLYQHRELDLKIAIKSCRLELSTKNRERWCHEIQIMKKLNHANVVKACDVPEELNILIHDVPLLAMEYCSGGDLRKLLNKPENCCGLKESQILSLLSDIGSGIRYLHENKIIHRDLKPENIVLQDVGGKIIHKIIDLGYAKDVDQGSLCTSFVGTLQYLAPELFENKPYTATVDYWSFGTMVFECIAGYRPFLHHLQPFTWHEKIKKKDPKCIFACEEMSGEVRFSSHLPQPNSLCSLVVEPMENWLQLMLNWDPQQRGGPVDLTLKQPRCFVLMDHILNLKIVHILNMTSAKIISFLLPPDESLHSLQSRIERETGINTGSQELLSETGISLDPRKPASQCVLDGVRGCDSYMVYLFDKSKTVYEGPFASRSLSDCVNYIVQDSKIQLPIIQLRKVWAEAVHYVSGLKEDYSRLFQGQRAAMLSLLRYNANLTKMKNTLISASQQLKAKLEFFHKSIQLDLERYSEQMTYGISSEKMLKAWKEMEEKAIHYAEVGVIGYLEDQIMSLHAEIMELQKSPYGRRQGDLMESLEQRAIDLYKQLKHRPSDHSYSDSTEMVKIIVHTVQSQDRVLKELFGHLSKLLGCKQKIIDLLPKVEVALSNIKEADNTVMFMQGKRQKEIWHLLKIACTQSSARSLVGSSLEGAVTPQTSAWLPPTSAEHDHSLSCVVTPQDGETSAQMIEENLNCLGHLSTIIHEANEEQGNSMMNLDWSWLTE

[4] = biological target: T3, panel of 255 wild-type kinases (Homo sapiens, UniProt Q15139); settings: kinase PKD1; 1 µmol/L single concentration; read-out: %-inhibition at 1 µmol/L, PKD1
T3 sequence (Q15139 1-912): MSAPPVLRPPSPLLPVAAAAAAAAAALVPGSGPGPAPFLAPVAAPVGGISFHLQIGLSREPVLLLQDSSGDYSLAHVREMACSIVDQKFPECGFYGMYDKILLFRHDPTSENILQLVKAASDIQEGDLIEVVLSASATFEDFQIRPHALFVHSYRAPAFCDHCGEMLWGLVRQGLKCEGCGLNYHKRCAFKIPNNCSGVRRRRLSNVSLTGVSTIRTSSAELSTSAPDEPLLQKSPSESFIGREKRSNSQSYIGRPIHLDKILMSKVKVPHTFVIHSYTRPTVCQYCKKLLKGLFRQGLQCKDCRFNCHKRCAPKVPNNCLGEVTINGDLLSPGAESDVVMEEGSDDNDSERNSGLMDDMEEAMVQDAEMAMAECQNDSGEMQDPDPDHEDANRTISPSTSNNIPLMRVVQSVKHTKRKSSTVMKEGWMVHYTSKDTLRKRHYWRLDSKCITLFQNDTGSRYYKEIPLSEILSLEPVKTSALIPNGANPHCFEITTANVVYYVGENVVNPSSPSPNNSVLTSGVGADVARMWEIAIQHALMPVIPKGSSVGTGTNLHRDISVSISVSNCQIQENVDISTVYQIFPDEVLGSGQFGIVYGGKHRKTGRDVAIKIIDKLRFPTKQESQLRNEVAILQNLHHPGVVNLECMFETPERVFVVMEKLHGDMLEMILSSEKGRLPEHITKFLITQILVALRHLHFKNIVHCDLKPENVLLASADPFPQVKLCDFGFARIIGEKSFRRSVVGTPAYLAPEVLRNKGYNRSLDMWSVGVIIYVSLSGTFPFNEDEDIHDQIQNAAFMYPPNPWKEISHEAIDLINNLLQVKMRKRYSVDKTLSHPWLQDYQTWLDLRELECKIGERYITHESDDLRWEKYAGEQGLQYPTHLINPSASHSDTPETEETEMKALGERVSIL

[5] = biological target: panel of 255 wild-type kinases (Homo sapiens, UniProt Q15208); settings: NDR1; 1 µmol/L single concentration; read-out: %-inhibition, NDR1
[6] = biological target: panel of 255 wild-type kinases (Homo sapiens, UniProt P50750); settings: CDK9/CycT1 kinase assay; 1 µmol/L single concentration; read-out: %-inhibition CDK9/CycT1

Structure (SMILES)	inhibition at 1 µM [1]	inhibition at 1 µM [2]	inhibition at 1 µM [3]	inhibition at 1 µM [4]	inhibition at 1 µM [5]	inhibition at 1 µM [6]
Cc1cc(Nc2ncnc3ccc(NC4=NC(C)(C)CO4)cc23)ccc1Oc1ccn2ncnc2c1 [tucatinib]	10%	-5.44%	-1.68%	28%	-0.331%	1.53%
C=CC(=O)N1CCC([C@@H]2CCNc3c(C(N)=O)c(-c4ccc(Oc5ccccc5)cc4)nn32)CC1 [zanubrutinib]	-3.23%	4.22%	-10%	5%	-1.86%	-1.15%

Source: paper PMC9516332 (Frontiers in Oncology, 2022)
